{"source": "the supplement of paper PMC11208160", "assay": "recombinant UMI read abundance after kanamycin selection (control-corrected) (log10(CPM+1)); higher = more efficient recombination; extreme values may be limits of the assay; sequences stand for … in AGTGCAGAGAAAATCGGCCAGTTTTCTCTGCCTGCAGTCCGCATGCCGTGGGACCCCTTGGGTTCTAACCTGTTGCCTAGATTTATGCAGCGGACTGCCTTTCTCCCAAAGTGATAAACCGG…AGGTTGGTTTCACT; site = the 11-nt donor", "outline": "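Sequencing read counts were converted to CPM, averaged over two replicates and scaled by control-derived factors. Results are given as log10(CPM+1). The reads covered the donor–target junction of recombinant UMIs from a pooled Escherichia coli screen of donor and donor-binding-loop pairs for the IS621 bridge recombinase.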"}
{"sequence": "TGTACCCCATGGACCGGTTTTCCCGGTAATCCGTATTTGTA (site TGTTCCCCTTA)", "values": [{"measurement": "recombinant UMI read abundance (log10)", "result": 0.00713}]}
{"sequence": "TGTACCGCATGGACCGGTTTTCCCGGTAATCCGTATTTGGG (site TGTACCGCTCC)", "values": [{"measurement": "recombinant UMI read abundance (log10)", "result": 0.0251}]}
{"sequence": "TGTACCTCATGGACCGGTTTTCCCGGTAATCCGTATTTGGG (site TGTACCTCTCC)", "values": [{"measurement": "recombinant UMI read abundance (log10)", "result": 0.0503}]}
{"sequence": "TGTACCTCATGGACCGGTTTTCCCGGTAATCCGTATTTGGT (site TGTACCTCTAC)", "values": [{"measurement": "recombinant UMI read abundance (log10)", "result": 0.0562}]}
{"sequence": "TGTACGTCATGGACCGGTTTTCCCGGTAATCCGTATTTGTT (site AGTACGTCTAA)", "values": [{"measurement": "recombinant UMI read abundance (log10)", "result": 0.00241}]}
{"sequence": "TGTACGTCATGGACCGGTTTTCCCGGTAATCCGTATTTGTT (site CGTACGTCTAA)", "values": [{"measurement": "recombinant UMI read abundance (log10)", "result": 0.031}]}
{"sequence": "TGTACGTCATGGACCGGTTTTCCCGGTAATCCGTATTTGTT (site GGTACGTCTAA)", "values": [{"measurement": "recombinant UMI read abundance (log10)", "result": 0.031}]}
{"sequence": "TGTACGTCATGGACCGGTTTTCCCGGTAATCCGTATTTGTT (site TGTACGTCTAA)", "values": [{"measurement": "recombinant UMI read abundance (log10)", "result": 0.00887}]}
{"sequence": "TGTACTACATGGACCGGTTTTCCCGGTAATCCGTATTTGGT (site TGTACTACTAC)", "values": [{"measurement": "recombinant UMI read abundance (log10)", "result": 0.00344}]}
{"sequence": "TGTAGAACATGGACCGGTTTTCCCGGTAATCCGTATTTGCC (site TGTAGAACTGG)", "values": [{"measurement": "recombinant UMI read abundance (log10)", "result": 0.754}]}
{"sequence": "TGTAGAACATGGACCGGTTTTCCCGGTAATCCGTATTTGGG (site TGTAGAACTCC)", "values": [{"measurement": "recombinant UMI read abundance (log10)", "result": 0.00647}]}
{"sequence": "TGTAGTACATGGACCGGTTTTCCCGGTAATCCGTATTTGAC (site TGTAGTACTGT)", "values": [{"measurement": "recombinant UMI read abundance (log10)", "result": 0.509}]}
{"sequence": "TGTATCGCATGGACCGGTTTTCCCGGTAATCCGTATTTGCT (site TGTATCGCTAG)", "values": [{"measurement": "recombinant UMI read abundance (log10)", "result": 1.57}]}
{"sequence": "TGTATTTCATGGACCGGTTTTCCCGGTAATCCGTATTTGGG (site TGTATTTCTCC)", "values": [{"measurement": "recombinant UMI read abundance (log10)", "result": 0.402}]}
{"sequence": "TGTCGTCCATGGACCGGTTTTCCCGGTAATCCGTATTTGCA (site TGTCGTCCTTG)", "values": [{"measurement": "recombinant UMI read abundance (log10)", "result": 0.616}]}
{"sequence": "TGTCTTCCATGGACCGGTTTTCCCGGTAATCCGTATTTGTC (site TGTCTTCCTGA)", "values": [{"measurement": "recombinant UMI read abundance (log10)", "result": 0}]}
{"sequence": "TGTGATTCATGGACCGGTTTTCCCGGTAATCCGTATTTGTT (site TGTGATTCTAA)", "values": [{"measurement": "recombinant UMI read abundance (log10)", "result": 0}]}
{"sequence": "TGTTAACCATGGACCGGTTTTCCCGGTAATCCGTATTTGTC (site TGTTAACCTGA)", "values": [{"measurement": "recombinant UMI read abundance (log10)", "result": 0}]}
{"sequence": "TGTTAGACATGGACCGGTTTTCCCGGTAATCCGTATTTGAG (site AGTTAGACTCT)", "values": [{"measurement": "recombinant UMI read abundance (log10)", "result": 0.103}]}
{"sequence": "TGTTAGACATGGACCGGTTTTCCCGGTAATCCGTATTTGAG (site CGTTAGACTCT)", "values": [{"measurement": "recombinant UMI read abundance (log10)", "result": 0.204}]}
{"sequence": "TGTTAGACATGGACCGGTTTTCCCGGTAATCCGTATTTGAG (site GGTTAGACTCT)", "values": [{"measurement": "recombinant UMI read abundance (log10)", "result": 0.0119}]}
{"sequence": "TGTTAGACATGGACCGGTTTTCCCGGTAATCCGTATTTGAG (site TGTTAGACTCT)", "values": [{"measurement": "recombinant UMI read abundance (log10)", "result": 0.233}]}
{"sequence": "TGTTCCGCATGGACCGGTTTTCCCGGTAATCCGTATTTGTC (site TGTTCCGCTGA)", "values": [{"measurement": "recombinant UMI read abundance (log10)", "result": 1.06}]}
{"sequence": "TGTTGAGCATGGACCGGTTTTCCCGGTAATCCGTATTTGCA (site TGTTGAGCTTG)", "values": [{"measurement": "recombinant UMI read abundance (log10)", "result": 0.98}]}
{"sequence": "TGTTTAGCATGGACCGGTTTTCCCGGTAATCCGTATTTGGG (site TGTTTAGCTCC)", "values": [{"measurement": "recombinant UMI read abundance (log10)", "result": 0.00333}]}
{"sequence": "TTAAAGCCATGGACCGGTTTTCCCGGTAATCCGTATTTGGC (site TTAAAGCCTGC)", "values": [{"measurement": "recombinant UMI read abundance (log10)", "result": 0}]}
{"sequence": "TTAATATCATGGACCGGTTTTCCCGGTAATCCGTATTTGAC (site CTAGTATCTGT)", "values": [{"measurement": "recombinant UMI read abundance (log10)", "result": 0}]}
{"sequence": "TTAATATCATGGACCGGTTTTCCCGGTAATCCGTATTTGAC (site TTAATATCTGT)", "values": [{"measurement": "recombinant UMI read abundance (log10)", "result": 1.18}]}
{"sequence": "TTACAAACATGGACCGGTTTTCCCGGTAATCCGTATTTGAG (site TTACAAACTCT)", "values": [{"measurement": "recombinant UMI read abundance (log10)", "result": 2.21}]}
{"sequence": "TTACCCACATGGACCGGTTTTCCCGGTAATCCGTATTTGTG (site TTACCCACTCA)", "values": [{"measurement": "recombinant UMI read abundance (log10)", "result": 0.0352}]}
{"sequence": "TTACGCTCATGGACCGGTTTTCCCGGTAATCCGTATTTGAT (site TTACGCTCTAT)", "values": [{"measurement": "recombinant UMI read abundance (log10)", "result": 1.93}]}
{"sequence": "TTACGTGCATGGACCGGTTTTCCCGGTAATCCGTATTTGTA (site TTACGTGCTTA)", "values": [{"measurement": "recombinant UMI read abundance (log10)", "result": 1.51}]}
{"sequence": "TTACGTTCATGGACCGGTTTTCCCGGTAATCCGTATTTGAG (site TTACGTTCTCT)", "values": [{"measurement": "recombinant UMI read abundance (log10)", "result": 1.76}]}
{"sequence": "TTACTGTCATGGACCGGTTTTCCCGGTAATCCGTATTTGGA (site TTACTGTCTTC)", "values": [{"measurement": "recombinant UMI read abundance (log10)", "result": 1.38}]}
{"sequence": "TTAGAACCATGGACCGGTTTTCCCGGTAATCCGTATTTGCC (site TTAGAACCTGG)", "values": [{"measurement": "recombinant UMI read abundance (log10)", "result": 0}]}
{"sequence": "TTAGATCCATGGACCGGTTTTCCCGGTAATCCGTATTTGAG (site TTAGATCCTCT)", "values": [{"measurement": "recombinant UMI read abundance (log10)", "result": 0.358}]}
{"sequence": "TTAGCAACATGGACCGGTTTTCCCGGTAATCCGTATTTGAG (site TTAGCAACTCT)", "values": [{"measurement": "recombinant UMI read abundance (log10)", "result": 0.835}]}
{"sequence": "TTAGCGGCATGGACCGGTTTTCCCGGTAATCCGTATTTGTG (site TTAGCAGCTCA)", "values": [{"measurement": "recombinant UMI read abundance (log10)", "result": 0.356}]}
{"sequence": "TTAGCGGCATGGACCGGTTTTCCCGGTAATCCGTATTTGTG (site TTAGCCGCTCA)", "values": [{"measurement": "recombinant UMI read abundance (log10)", "result": 0.00441}]}
{"sequence": "TTAGCGGCATGGACCGGTTTTCCCGGTAATCCGTATTTGTG (site TTAGCGGCTCA)", "values": [{"measurement": "recombinant UMI read abundance (log10)", "result": 1.51}]}
{"sequence": "TTAGCGGCATGGACCGGTTTTCCCGGTAATCCGTATTTGTG (site TTAGCTGCTCA)", "values": [{"measurement": "recombinant UMI read abundance (log10)", "result": 0.0387}]}
{"sequence": "TTAGCTGCATGGACCGGTTTTCCCGGTAATCCGTATTTGTT (site TTAGCTGCTAA)", "values": [{"measurement": "recombinant UMI read abundance (log10)", "result": 1.08}]}
{"sequence": "TTAGCTGCATGGACCGGTTTTCCCGGTAATCCGTATTTGTT (site TTAGCTGCTCA)", "values": [{"measurement": "recombinant UMI read abundance (log10)", "result": 0.187}]}
{"sequence": "TTAGCTGCATGGACCGGTTTTCCCGGTAATCCGTATTTGTT (site TTAGCTGCTGA)", "values": [{"measurement": "recombinant UMI read abundance (log10)", "result": 0.423}]}
{"sequence": "TTAGCTGCATGGACCGGTTTTCCCGGTAATCCGTATTTGTT (site TTAGCTGCTTA)", "values": [{"measurement": "recombinant UMI read abundance (log10)", "result": 0.0119}]}
{"sequence": "TTAGGACCATGGACCGGTTTTCCCGGTAATCCGTATTTGCA (site TTAGGACCTTG)", "values": [{"measurement": "recombinant UMI read abundance (log10)", "result": 0.00659}]}
{"sequence": "TTAGGTACATGGACCGGTTTTCCCGGTAATCCGTATTTGAC (site ATAGGTACTGT)", "values": [{"measurement": "recombinant UMI read abundance (log10)", "result": 0.0067}]}
{"sequence": "TTAGGTACATGGACCGGTTTTCCCGGTAATCCGTATTTGAC (site CTAGGTACTGT)", "values": [{"measurement": "recombinant UMI read abundance (log10)", "result": 0}]}
{"sequence": "TTAGGTACATGGACCGGTTTTCCCGGTAATCCGTATTTGAC (site GTAGGTACTGT)", "values": [{"measurement": "recombinant UMI read abundance (log10)", "result": 0}]}
{"sequence": "TTAGGTACATGGACCGGTTTTCCCGGTAATCCGTATTTGAC (site TTAGGTACTGT)", "values": [{"measurement": "recombinant UMI read abundance (log10)", "result": 1.98}]}
{"sequence": "TTAGTATCATGGACCGGTTTTCCCGGTAATCCGTATTTGTC (site CTAGTATCTGT)", "values": [{"measurement": "recombinant UMI read abundance (log10)", "result": 0}]}
{"sequence": "TTAGTATCATGGACCGGTTTTCCCGGTAATCCGTATTTGTC (site TTAGTATCTGA)", "values": [{"measurement": "recombinant UMI read abundance (log10)", "result": 1.77}]}
